Experimental data taken from patent US20120003156A1, “METHODS FOR TREATING NEOPLASIA BY INHIBITING LACTATE DEHYDROGENASE AND/OR NICOTINAMIDE PHOSPHORIBOSYLTRANSFERASE” (The Johns Hopkins University, priority 2008, published 2012).
“Also recorded” adds a separate entry of the source.

Legend:
P493 cells [1] = assay: ROS measurement by DCFDA flow cytometry; format: cell-based, human; conditions: 9 μM FX11 or FK866, 24 hours
Procedure: The measurement of intracellular ROS production was measured by staining cells with 5-(and-6)-carboxy-2′,7′-dichlorodihydrofluorescein diacetate (carboxy-H2DCFDA; Molecular Probes) according to the manufacturer's instructions. 10^5 cells/ml were treated with 9 μM FX11 or FK866 for 24 hours. Stained cells were analyzed in FACScan flow cytometers (BD Bioscience).

[2] = tested on: P493 human lymphoma B cells; assay: Cell population growth, trypan blue live cell count; format: cell-based
Procedure: (§1) P493 human lymphoma B cells were maintained in RPMI 1640 with 10% fetal bovine serum (FBS) and 1% penicillin-streptomycin. P198 human pancreatic cancer cells; RCC4, RCC4-VHL human renal carcinoma cells; MCF-7 and MDA-MB-453 breast cancer cells were maintained in high glucose (4.5 mg/ml) DMEM with 10% FBS and 1% penicillin-streptomycin. Non-hypoxic cells (20% O2) were maintained at 37° C. in a 5% CO2, 95% in an air incubator. Hypoxic cells (1% O2) were maintained in a controlled atmosphere chamber (PLAS-LABS, Lansing, Mich.) with a gas mixture containing 1% O2, 5% CO2, and 94% N2 at 37° C. for the indicated time. Bright live cells were counted daily in a hemacytometer using trypan blue dye to exclude dead cells. All cells were grown at a concentration of 10^5 cells/ml. All drugs treatment began at day 0.
siRNAs targeting human LDHA (ON-TARGETplus SMARTpool) were purchased from Dharmacon Research Inc. Targeting sequences for LDHA were a pool of the following four target sequences: sequence 1, […]; sequence 2, […]; sequence 3, […]; sequence 4, […]. Accordingly, one of skill in the art would recognize the siRNA sequences corresponding to these targets. For P493 human lymphoma B cells, transfection of siRNAs was performed using an Amaxa Nucleotransfection device according to the manufacturer's instructions. Briefly, 2 μg siLDHA ON-TARGETplus SMARTpool or ON-TARGETplus Non-targeting Pool (Dharmacon Research Inc.) were transfected into 2×10^6 cells at 0 hours. […]. The remaining cells were harvested for immunoblot analysis. For P198 human pancreatic cancer cells, transfection of siRNAs was performed using X-tremeGENE siRNA Transfection Reagent (Roche) according to the manufacturer's instructions.

P493 cells [3] = assay: Mitochondrial membrane potential by JC-1 flow cytometry; format: cell-based, human; conditions: 9 μM FX11 or/and FK866, 24 hours
Excerpt: The lipophilic cation dye (5,5′,6,6′-tetrachloro-1,1′,3,3′-tetraethylbenzimidazolcarbocyanine iodide, JC-1) (Invitrogen) was used to detect the loss of the mitochondrial membrane potential. The negative charge established by the intact mitochondrial membrane potential lets the lipophilic dye stain the mitochondria bright red which emits in channel 2 (FL2). When the mitochondrial membrane potential collapses, JC-1 remains in the cytoplasm in a green fluorescent monomeric emission in channel 1 (FL1). JC-1 reversibly changes its color from green to orange as membrane potentials increase (over values of 80-100 mV). 10^5 cells/ml were treated with 9 μM FX11 or/and FK866 for 24 hours. Stained cells were analyzed in FACScan flow cytometers (BD Bioscience).

P493 cells [4] = assay: ATP levels, luciferin-luciferase-based assay; format: cell-based, human; conditions: 9 μM FX11 or 0.5 nM FK866, 20 hours
Procedure: P493 cells were treated with 9 μM FX11 or 0.5 nM FK866 for 20 hours and counted. ATP levels were determined by luciferin-luciferase-based assay (Promega) on aliquots containing equal number of cells according to standard protocol.

P493 cells [5] = assay: NADH/NAD+ ratio colorimetric assay; format: cell-based, human; conditions: 9 μM FX11, 24 hours
Procedure: The NADH/NAD^+ ratios were assayed using EnzyChrom™ NADH/NAD^+ colorimetric Assay Kit, from BioAssay Systems. This assay is based on an enzyme-catalyzed kinetic reaction where a tetrazolium dye 3-[4,5-dimethylthiazol-2-yl]-2,5-diphenyltetrazolium bromide (MTT) is reduced by NADH in the presence of phenazine methosulfate (PMS). The intensity of the reduced product color, measured at 565 nm, is proportionate to the NADH/NAD^+ concentration in the sample. […] After washing with cold PBS, cells were homogenized in 100 μl of NAD^+ or NADH extraction buffer. Following heat extract at 60° C. for 5 minutes, the assay was performed according to the manufacturer's instructions.

P493 cells [6] = assay: Lactate production and glucose utilization, ABL700 Radiometer analyzer; format: cell-based, human
Procedure: Lactate production was measured by the ABL700 Radiometer analyzer according to the manufacturer's instructions. 10^5 cells were grown at 37° C. in a 5% CO2, 95% air incubator and treated with 9 μM FX11 or 0.5 nM FK866 for 24 hours.

RCC4 cells = assay: Cell population growth; format: cell-based, human; conditions: dose-response
Procedure: as §1

[7] = tested on: human pancreatic cell line P10; assay: Cell growth; format: cell-based
[8] = tested on: P493 human lymphoma B cells; assay: Human P493 B cell lymphoma xenograft; format: in vivo, SCID mice
Procedure: (§2) The animal studies were performed according to the protocols approved by the Animal Care and Use Committee at Johns Hopkins University. In order to generate tumorigenesis study in xenograft model, 2.0×10^7 P493 human lymphoma B cells or 5×10^6 human pancreatic cancer cells were injected subcutaneously into male SCID mice (NCI) or athymic Hsd: RH-Foxn1nu mice (Harlan), respectively, as previously described (Feldmann et al., 2007; Gao et al., 2009; Gao et al., 2007). When the tumor volume reached 200 mm^3, groups of 5 mice were injected with control 2% DMSO or 42 μg FX11 and/or 100 μg FK866. The tumor volumes were measured using a digital caliper after 4, 7 and 10 days of treatment. Tumor volumes were calculated using the following formula: [length (mm)×width (mm)×width (mm)×0.52]. The entire experiment was repeated seven times.

[9] = tested on: P198 human pancreatic cancer xenografts; assay: Human P198 pancreatic cancer xenograft; format: in vivo, athymic nu mice; conditions: treatment from 200 mm^3; daily IP 42 μg FX11; compared with E
Procedure: as §2

[10] = Solubility in aqueous solution; format: physicochemical; conditions: relative to the 42 μg dose
Procedure: Although the renewed interest in the Warburg effect is accompanied by a greater understanding of its molecular underpinnings, targeting it for therapeutic purposes has become a major challenge. […] Of note, primary human lymphomas have been documented to have elevated LDHA expression particularly in hypoxic regions. […] A desired FX11 dose of 42 μg for daily intraperitoneal (IP) injection was calculated. An initial serum level of ˜100 μM was expected, assuming a uniform and immediate distribution in the vascular system without accounting for the drug half-life or drug metabolism.

LDHA = LDHA (Homo sapiens, UniProt P00338); conditions: cited from earlier work
[11] = molecular target: purified human liver LDHA (Homo sapiens, UniProt P00338); assay: Determination of Ki and enzyme kinetics of LDHA; conditions: NADH as substrate; Lineweaver-Burk plots
Procedure: The reaction velocity of purified human LDHA or GAPDH was determined by a decrease or increase in absorbance at 340 nm of NADH, respectively. […] The GADPH activity was assessed using the protocol described in Worthington Enzyme Manual: http://www.worthington-biochem.com/GAPD/assay.html with varying concentrations of NAD^+. Ki values were determined from double-reciprocal plots by linear regression analysis using SigmaPlot Enzyme Kinetic software.

In the case of `CCCc1c(O)c(O)c(C(=O)O)c2cc(Cc3ccccc3)c(C)cc12` [FX11, 2,3-dihydroxy-6-methyl-7-(phenylmethyl)-4-propylnaphthalene-1-carboxylic acid], the ROS production (P493 cells [1]) is reported as “increased”, the “growth inhibition at 1% O2 compared with normoxia” value ([2]; 9 μM FX11) is reported as “increased” and the “proliferative rate of P493 cells with siRNA knock-down of LDHA” value ([2]; 9 μM FX11) is reported as “not further slowed”. The “inhibition of P493 cells in the absence of glucose” value ([2]; glucose-depleted medium) was “could not inhibit P493 cells further”, the “inhibition of P493 cells, dose-response” value ([2]; normoxia (20% O2) and hypoxia (1% O2)) was “dose-dependent manner that was augmented in hypoxia” and the “proliferation of P493 cells” value ([2]; single agent) was “diminished proliferation”. The mitochondrial membrane potential (P493 cells [3]) was “decreased”, the ATP levels (P493 cells [4]) was “decrease in ATP levels” and the “NADH/NAD+ ratio” value (P493 cells [5]) was “increase”. For the same molecule, the “cellular production of lactate” value (P493 cells [6]; 9 μM FX11, 24 hours) was “significantly diminished”, the glucose utilization (P493 cells [6]; FX11 treatment for 24 hours) was “reduction of glucose utilization” and the “cell population growth / sensitivity” value (RCC4 cells) was “inhibited cell population growth; also recorded: more sensitive”. The growth inhibition [7] was “dose-dependent manner”, the “tumor growth of palpable P493 xenografts” value ([8]; daily IP, 42 μg FX11 or 0.8 mg doxycycline, vs vehicle 2% DMSO) was “remarkable inhibition of tumor growth” and the “tumor growth of established P493 lymphoma xenografts” value ([8]; treatment from 200 mm^3, daily IP 42 μg FX11 and/or 100 μg FK866, ten days) was “cytostatic, but significant effect; also recorded: effectively inhibited”. For the same molecule, the “tumor growth of P198 pancreatic tumor xenografts” value [9] was “significant response; also recorded: effectively inhibited”, the “solubility limit in aqueous solution” value [10] was “dose could only be doubled before the limit of FX11 in aqueous solution was reached” and the “selectivity LDHA versus LDHB or pLDH” value (LDHA) was “preferentially inhibited LDHA as opposed to LDHB or pLDH”. For the same molecule, the “mode of inhibition of LDHA” value [11] was “competitive inhibitors; also recorded: competitive inhibitor of NADH”.
